Test results: US7282507B2, “Indole derivatives as selective androgen receptor modulators (SARMS)” (Janssen Pharmaceutica N.V., priority 2004, dated 2007)

Assays:
[1] = tested on: testosterone-enhanced ventral prostate and seminal vesicle weights; test: Ventral Prostate and Seminal Vesicle Weight in vivo Assay; set-up: species or system rat; details: immature castrated male Sprague Dawley rats, once daily for five days, usually orally 40 mg/kg, with testosterone propionate 2 mg/kg s.c. Further: key: 'active' if the non weight adjusted prostate weight was ≦40 mg or the % Inhibition prostate weight, body weight adjusted was ≧40% @ 2 mg/day dosage; ID50's, if determined, of ≦15 mg/day also indicated an 'active' compound; listed herein as 'inactive' as they did not meet the specified criteria defined above.
Procedure, shortened: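 Wet weights of ventral prostate and seminal vesicles were taken on day six. Castrated immature male Sprague Dawley rats had received five daily doses of testosterone propionate (2 mg/kg s.c.) together with test compound, typically 40 mg/kg orally. Activity was scored from absolute prostate weight or body-weight-adjusted % inhibition.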

[2] = molecular target: T1, androgen receptor (AdEasy+rAR, L929 cells) (Rattus norvegicus, UniProt P15207); test: L929 Androgen Receptor Functional Assay, Adenovirus Transduction; type: cell-based; details: for % Activity, L929 androgen receptor functional assay / EC50: agonist testing; for % Inhibition, L929 androgen receptor functional assay: antagonist testing with R1881, 3000 nM; for inhibition at 3 µM: L929, antagonist testing with R1881, 3000 nM; for IC50: antagonist testing with R1881
T1 construct: expressed in transfected cells; host or cells: L929 cells transduced with adenovirus AdEasy+rAR
T1 sequence (P15207 1-902): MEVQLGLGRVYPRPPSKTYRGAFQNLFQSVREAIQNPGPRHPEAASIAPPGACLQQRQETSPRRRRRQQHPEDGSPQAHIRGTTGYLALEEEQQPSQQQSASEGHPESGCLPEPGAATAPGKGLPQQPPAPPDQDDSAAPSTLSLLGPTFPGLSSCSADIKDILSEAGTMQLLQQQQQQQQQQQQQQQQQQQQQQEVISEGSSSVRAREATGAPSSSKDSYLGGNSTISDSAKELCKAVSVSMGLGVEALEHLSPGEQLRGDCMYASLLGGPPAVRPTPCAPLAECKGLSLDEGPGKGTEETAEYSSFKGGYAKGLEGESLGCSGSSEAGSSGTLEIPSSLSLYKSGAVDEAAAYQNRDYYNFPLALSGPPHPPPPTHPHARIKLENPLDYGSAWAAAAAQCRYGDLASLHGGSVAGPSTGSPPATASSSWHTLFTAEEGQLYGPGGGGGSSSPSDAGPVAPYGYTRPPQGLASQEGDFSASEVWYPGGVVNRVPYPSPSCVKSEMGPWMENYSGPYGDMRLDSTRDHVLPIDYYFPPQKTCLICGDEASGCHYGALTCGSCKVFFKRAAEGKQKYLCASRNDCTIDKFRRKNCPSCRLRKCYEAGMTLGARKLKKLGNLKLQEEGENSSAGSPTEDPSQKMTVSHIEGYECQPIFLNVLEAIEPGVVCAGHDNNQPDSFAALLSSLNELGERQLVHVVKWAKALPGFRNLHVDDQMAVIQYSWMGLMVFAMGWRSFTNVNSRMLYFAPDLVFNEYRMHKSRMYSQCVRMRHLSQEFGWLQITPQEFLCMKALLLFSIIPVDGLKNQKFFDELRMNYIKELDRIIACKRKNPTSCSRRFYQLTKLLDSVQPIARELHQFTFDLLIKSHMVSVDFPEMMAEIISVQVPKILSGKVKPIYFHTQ
Procedure, shortened: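 Luminescent reporter readout after 48 h at 37 °C: rat AR delivered by adenovirus (AdEasy+rAR, moi 1:500) into L929 cells grown without phenol red in charcoal-treated serum. Antagonist wells also received R1881 (2.5× dilution at 2.5 nM).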

| SMILES | active / inactive: inhibition of testosterone-enhanced prostate weight [1] | % Activity, L929 androgen receptor functional assay ([2]; 3000 nM) | inhibition at 3 µM [2] | also measured |
| --- | --- | --- | --- | --- |
| CC(O)(CS(C)(=O)=O)c1cc2cc([N+](=O)[O-])c(C(F)(F)F)cc2[nH]1 (stereo not shown) [Compound 140] | active | 0% | – | % Inhibition, L929 androgen receptor functional assay ([2]; 3 µM): 78% |
| CSCCC(C)(O)c1cc2cc([N+](=O)[O-])c(C(F)(F)F)cc2[nH]1 (stereo not shown) [Compound 47] | inactive | 2% | 75% | – |
| CCS(=O)(=O)CC(C)(O)c1cc2cc([N+](=O)[O-])c(C(F)(F)F)cc2[nH]1 (stereo not shown) [Compound 151] | – | – | – | EC50 [2]: > 8000 nM; % Activity, L929 androgen receptor functional assay ([2]; @ 8000 nM): −1 @ 8000 nM %; IC50 [2]: 533 nM |
| CSCC(C)(O)c1cc2cc(Cl)c(C(F)(F)F)cc2[nH]1 (stereo not shown) [Compound 135] | inactive | 0% | 40% | – |
| CC(O)(CS(=O)(=O)c1ccc(N)cc1)c1cc2cc(Cl)c(C(F)(F)F)cc2[nH]1 (stereo not shown) [Compound 118] | inactive | – | 63% | EC50 [2]: > 8000 nM; % Activity, L929 androgen receptor functional assay ([2]; @ 8000 nM): −2 @ 8000 nM %; IC50 [2]: 3070 nM |
| CCSCC(C)(O)c1cc2cc([N+](=O)[O-])c(C(F)(F)F)cc2[nH]1 (racemic) [Compound 142] | active | 0% | 78% | – |
| CC(O)(CS(C)(=O)=O)c1cc2cc(Cl)c(C(F)(F)F)cc2[nH]1 (stereo not shown) [Compound 138] | inactive | 0% | 19% | – |
| CCSCC(C)(O)c1cc2cc([N+](=O)[O-])c(C(F)(F)F)cc2[nH]1 (single isomer, unassigned) [Compound 149] | – | 2% | 77% | – |
| CCS(=O)(=O)CC(C)(O)c1cc2cc([N+](=O)[O-])c(C(F)(F)F)cc2[nH]1 (stereo not shown) [Compound 143] | active | 0% | 67% | – |
| CC(O)(CSc1ccc([N+](=O)[O-])cc1)c1cc2cc(Cl)c(C(F)(F)F)cc2[nH]1 (stereo not shown) [Compound 122] | – | 10% | 35% | – |
| CSCC(C)(O)c1cc2cc([N+](=O)[O-])c(C(F)(F)F)cc2[nH]1 (single isomer, unassigned) [Compound 144] | – | – | 82% | % Activity, L929 androgen receptor functional assay ([2]; 3000 nM, 3 µM): 0% |
| CC(O)(CSc1ccc(O)cc1)c1cc2cc(Cl)c(C(F)(F)F)cc2[nH]1 (stereo not shown) [Compound 120] | – | −5% | 44% | – |
| CSCC(C)(O)c1cc2cc([N+](=O)[O-])c(C(F)(F)F)cc2[nH]1 (single isomer, unassigned) [Compound 145] | – | – | – | % Activity, L929 androgen receptor functional assay ([2]; 3000 nM, 3 µM): 1%; % Inhibition, L929 androgen receptor functional assay ([2]; 3 µM): 94% |
| CC(O)(CS(=O)(=O)c1ccc(O)cc1)c1cc2cc(Cl)c(C(F)(F)F)cc2[nH]1 (stereo not shown) [Compound 121] | – | −4% | 54% | – |
| CC(O)(CS(C)(=O)=O)c1cc2cc([N+](=O)[O-])c(C(F)(F)F)cc2[nH]1 (stereo not shown) [Compound 147] | – | 0% | – | % Inhibition, L929 androgen receptor functional assay ([2]; 3 µM): 43% |
| CCSCC(C)(O)c1cc2cc([N+](=O)[O-])c(C(F)(F)F)cc2[nH]1 (single isomer, unassigned) [Compound 150] | – | – | – | EC50 [2]: > 8000 nM; % Activity, L929 androgen receptor functional assay ([2]; @ 8000 nM): 0 @ 8000 nM %; IC50 [2]: 303 nM |
| CC(O)(CS(C)(=O)=O)c1cc2cc([N+](=O)[O-])c(C(F)(F)F)cc2[nH]1 (stereo not shown) [Compound 148] | – | 0% | – | % Inhibition, L929 androgen receptor functional assay ([2]; 3 µM): 77% |
| COc1ccc(SCC(C)(O)c2cc3cc(Cl)c(C(F)(F)F)cc3n2S(C)(=O)=O)cc1 (racemic) [Compound 130] | – | −5% | – | – |
